In PMC12495306 (RSC Medicinal Chemistry, 2025):

How the values were obtained:
[1] = target: T1, ARα2A (Homo sapiens, UniProt P08913); test: ARα2A radioligand; assay type: binding; details: ARα2A binding Ki, competition with 3H-Rauwolscinein; concentration response
T1 sequence (P08913 1-465): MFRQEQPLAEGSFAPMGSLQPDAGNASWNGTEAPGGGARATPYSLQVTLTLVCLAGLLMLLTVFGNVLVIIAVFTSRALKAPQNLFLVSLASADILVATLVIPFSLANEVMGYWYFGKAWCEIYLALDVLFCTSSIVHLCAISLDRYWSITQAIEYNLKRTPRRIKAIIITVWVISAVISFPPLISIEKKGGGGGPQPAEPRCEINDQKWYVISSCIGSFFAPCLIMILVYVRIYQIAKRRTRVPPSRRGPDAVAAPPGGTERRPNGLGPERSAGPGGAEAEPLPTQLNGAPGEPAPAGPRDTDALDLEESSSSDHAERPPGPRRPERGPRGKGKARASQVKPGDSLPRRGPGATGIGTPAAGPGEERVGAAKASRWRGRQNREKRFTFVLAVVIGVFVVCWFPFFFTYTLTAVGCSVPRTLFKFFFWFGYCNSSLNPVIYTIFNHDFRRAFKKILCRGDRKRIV

[2] = test system: HEK293 cells; test: Cell viability / cytotoxicity assay; assay type: cell-based, human; details: CellTiter-Glo, 18 h
[3] = target: T2, ARα2B (Homo sapiens, UniProt P18089); test: ARα2B radioligand; assay type: binding; details: for inhibition at 10 µM: read-out: ARα2B binding (% inhibition at 10 μM)
T2 sequence (P18089 1-450): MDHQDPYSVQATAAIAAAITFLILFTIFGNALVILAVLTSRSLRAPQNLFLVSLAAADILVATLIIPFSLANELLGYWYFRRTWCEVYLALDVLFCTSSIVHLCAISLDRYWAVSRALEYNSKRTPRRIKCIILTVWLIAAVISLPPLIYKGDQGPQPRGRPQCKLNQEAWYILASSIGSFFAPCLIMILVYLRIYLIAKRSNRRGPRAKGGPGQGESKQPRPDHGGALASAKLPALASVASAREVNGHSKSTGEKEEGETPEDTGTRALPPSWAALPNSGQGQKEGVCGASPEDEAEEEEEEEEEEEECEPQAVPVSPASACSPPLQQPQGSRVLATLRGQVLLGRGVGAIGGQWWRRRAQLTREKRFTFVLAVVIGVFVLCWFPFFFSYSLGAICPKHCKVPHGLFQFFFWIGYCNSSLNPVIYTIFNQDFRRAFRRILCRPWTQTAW

[4] = target: T3, ARα2C (Homo sapiens, UniProt P18825); test: ARα2C radioligand; assay type: binding
T3 sequence (P18825 1-462): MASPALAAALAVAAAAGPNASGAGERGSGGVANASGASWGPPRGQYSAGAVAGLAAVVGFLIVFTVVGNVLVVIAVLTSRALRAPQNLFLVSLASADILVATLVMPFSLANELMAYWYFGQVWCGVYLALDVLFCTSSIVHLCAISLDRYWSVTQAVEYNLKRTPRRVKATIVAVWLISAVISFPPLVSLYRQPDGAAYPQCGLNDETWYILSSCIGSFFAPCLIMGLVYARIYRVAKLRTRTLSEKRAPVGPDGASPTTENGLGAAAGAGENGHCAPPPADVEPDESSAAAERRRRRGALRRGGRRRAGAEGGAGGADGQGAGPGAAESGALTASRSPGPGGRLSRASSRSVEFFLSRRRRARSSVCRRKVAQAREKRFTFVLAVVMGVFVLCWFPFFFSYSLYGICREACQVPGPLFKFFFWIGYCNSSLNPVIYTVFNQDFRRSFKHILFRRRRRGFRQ

[5] = Aqueous solubility, shake flask method; assay type: physicochemical; details: pH 7.4, PBS, 24 h

Row | Structure (SMILES) | Ki [1] [nM] | Cytotoxicity LD50 [2] [µM] | inhibition at 10 µM [3] [%] | Ki [3] [nM] | Ki [4] [nM] | Aqueous solubility [5] [µM]
1 | CC1N=C(c2ccccc2F)c2cc(Nc3ccc(C(F)(F)F)cc3)ccc2NC1=O (stereo not shown) [Compound 12, 5-(2-Fluorophenyl)-7-(4-trifluoromethylanilino)-3-methyl-1,3-dihydro-2H-1,4-benzodiazepin-2-one] | 2590 | >150 | 38 | – | – | –
2 | CC1N=C(c2ccccc2F)c2cc(N(C)c3ccccc3)ccc2NC1=O (stereo not shown) [Compound 21, 5-(2-Fluorophenyl)-7-(N-methylanilino)-3-methyl-1,3-dihydro-2H-1,4-benzodiazepin-2-one] | – | 158 ± 27 | 47 | – | – | –
3 | Cc1ccc(Nc2ccc3c(c2)C(c2ccccc2F)=NC(C)C(=O)N3)c(C)c1 (stereo not shown) [Compound 20, 5-(2-Fluorophenyl)-7-(2,4-dimethylanilino)-3-methyl-1,3-dihydro-2H-1,4-benzodiazepin-2-one] | – | 88 ± 22 | 33 | – | – | –
4 | CC1N=C(c2ccccc2F)c2cc(Nc3ccc(C#N)cc3)ccc2NC1=O (stereo not shown) [Compound 9, 7-(4-Cyanoanilino)-5-(2-fluorophenyl)-3-methyl-1,3-dihydro-2H-1,4-benzodiazepin-2-one] | – | 83 ± 29 | 23 | – | – | –
5 | CC1N=C(c2ccccc2F)c2cc(Nc3cccc(C#N)c3)ccc2NC1=O (stereo not shown) [Compound 19, 7-(3-Cyanoanilino)-5-(2-fluorophenyl)-3-methyl-1,3-dihydro-2H-1,4-benzodiazepin-2-one] | – | 165 ± 27 | 57 | 3250 | – | –
6 | CSc1ccc(Nc2ccc3c(c2)C(c2ccccc2F)=NC(C)C(=O)N3)cc1 (stereo not shown) [Compound 7, 5-(2-Fluorophenyl)-3-methyl-7-((4-(methylthio)phenyl)amino)-1,3-dihydro-2H-1,4-benzodiazepin-2-one] | 3300 | 63 ± 12 | 41 | – | 2410 | –
7 | Cc1ccc(Nc2ccc3c(c2)C(c2ccccc2F)=NC(C)C(=O)N3)cc1 (stereo not shown) [Compound 3, 5-(2-Fluorophenyl)-3-methyl-7-(4-methylanilino)-1,3-dihydro-2H-1,4-benzodiazepin-2-one] | 2280 | 62 ± 15 | 61 | 4640 | 2160 | –
8 | CC1N=C(c2ccccc2F)c2cc(Nc3ccccc3C#N)ccc2NC1=O (stereo not shown) [Compound 13, 7-(2-Cyanoanilino)-5-(2-fluorophenyl)-3-methyl-1,3-dihydro-2H-1,4-benzodiazepin-2-one] | – | >150 | 29 | – | – | –
9 | C[C@H]1N=C(c2ccccc2F)c2cc(Br)ccc2NC1=O [Compound 1, (3R)-7-Bromo-5-(2-fluorophenyl)-3-methyl-1,3-dihydro-2H-1,4-benzodiazepin-2-one] | – | >300 | -6 | – | – | –
10 | CC1N=C(c2ccccc2F)c2cc(NC3CCCCC3)ccc2NC1=O (stereo not shown) [Compound 26, 7-(Cyclohexylamino)-5-(2-fluorophenyl)-3-methyl-1,3-dihydro-2H-1,4-benzodiazepin-2-one] | – | >300 | 64 | – | – | –
11 | CC1N=C(c2ccccc2F)c2cc(N3CCOCC3)ccc2NC1=O (stereo not shown) [Compound 22, 5-(2-Fluorophenyl)-3-methyl-7-(morpholin-4-yl)-1,3-dihydro-2H-1,4-benzodiazepin-2-one] | – | >300 | 27 | – | – | –
12 | COc1ccc(Nc2ccc3c(c2)C(c2ccccc2F)=NC(C)C(=O)N3)cc1 (stereo not shown) [Compound 4, 5-(2-Fluorophenyl)-7-(4-methoxyanilino)-3-methyl-1,3-dihydro-2H-1,4-benzodiazepin-2-one] | 2070 | 87 ± 32 | 41 | – | 2080 | –
13 | CC1N=C(c2ccccc2F)c2cc(NC(C)(C)C)ccc2NC1=O (stereo not shown) [Compound 25, 7-(tert-Butylamino)-5-(2-fluorophenyl)-3-methyl-1,3-dihydro-2H-1,4-benzodiazepin-2-one] | – | >300 | 40 | – | – | 393.6 ± 10.40
14 | CC1N=C(c2ccccc2F)c2cc(NCc3ccccc3)ccc2NC1=O (stereo not shown) [Compound 24, 7-(Benzylamino)-5-(2-fluorophenyl)-3-methyl-1,3-dihydro-2H-1,4-benzodiazepin-2-one] | – | >150 | 46 | – | – | –
15 | CC1N=C(c2ccccc2F)c2cc(Nc3ccc([N+](=O)[O-])cc3)ccc2NC1=O (stereo not shown) [Compound 6, 5-(2-Fluorophenyl)-3-methyl-7-(4-nitroanilino)-1,3-dihydro-2H-1,4-benzodiazepin-2-one] | 2620 | 61 ± 10 | 36 | – | – | –
16 | CCc1ccccc1Nc1ccc2c(c1)C(c1ccccc1F)=NC(C)C(=O)N2 (stereo not shown) [Compound 16, 7-(2-Ethylanilino)-5-(2-fluorophenyl)-3-methyl-1,3-dihydro-2H-1,4-benzodiazepin-2-one] | – | >300 | -2 | – | – | –
17 | CC1N=C(c2ccccc2F)c2cc(Nc3ccc(O)cc3)ccc2NC1=O (stereo not shown) [Compound 10, 5-(2-Fluorophenyl)-7-((4-hydroxyphenyl)amino)-3-methyl-1,3-dihydro-2H-1,4-benzodiazepin-2-one] | – | 135 ± 26 | 52 | 4180 | – | 197.9 ± 4.04
18 | CC1N=C(c2ccccc2F)c2cc(Nc3ccc(S(C)(=O)=O)cc3)ccc2NC1=O (stereo not shown) [Compound 8, 5-(2-Fluorophenyl)-7-(4-methanesulfonylanilino)-3-methyl-1,3-dihydro-2H-1,4-benzodiazepin-2-one] | – | >150 | -5 | – | – | –
19 | CC1N=C(c2ccccc2F)c2cc(Nc3ccc(Cl)cc3)ccc2NC1=O (stereo not shown) [Compound 5, 7-(4-Chloroanilino)-5-(2-fluorophenyl)-3-methyl-1,3-dihydro-2H-1,4-benzodiazepin-2-one] | 2080 | 87 ± 36 | 81 | 1410 | 1640 | –
20 | CC1N=C(c2ccccc2F)c2cc(N3CCCCC3)ccc2NC1=O (stereo not shown) [Compound 23, 5-(2-Fluorophenyl)-3-methyl-7-(piperidin-1-yl)-1,3-dihydro-2H-1,4-benzodiazepin-2-one] | – | >300 | 61 | – | – | –
21 | CC1N=C(c2ccccc2F)c2cc(Nc3ccccc3F)ccc2NC1=O (stereo not shown) [Compound 14, 7-(2-Fluoroanilino)-5-(2-fluorophenyl)-3-methyl-1,3-dihydro-2H-1,4-benzodiazepin-2-one] | 2240 | 90 ± 27 | 82 | 1280 | 2140 | 26.0 ± 2.10
22 | CC1N=C(c2ccccc2F)c2cc(N(C)C)ccc2NC1=O (stereo not shown) [Compound 27, 7-(Dimethylamino)-5-(2-fluorophenyl)-3-methyl-1,3-dihydro-2H-1,4-benzodiazepin-2-one] | – | >300 | 45 | – | – | –
23 | COC(=O)c1ccc(Nc2ccc3c(c2)C(c2ccccc2F)=NC(C)C(=O)N3)cc1 (stereo not shown) [Compound 11, 5-(2-Fluorophenyl)-7-(4-methoxycarbonylanilino)-3-methyl-1,3-dihydro-2H-1,4-benzodiazepin-2-one] | 2250 | 88 ± 17 | 44 | – | 1540 | –
24 | Cc1cccc(Nc2ccc3c(c2)C(c2ccccc2F)=NC(C)C(=O)N3)c1 (stereo not shown) [Compound 18, 5-(2-Fluorophenyl)-3-methyl-7-(3-methylanilino)-1,3-dihydro-2H-1,4-benzodiazepin-2-one] | 2080 | 109 ± 12 | 87 | 1670 | 1180 | –
